One assay has as its target T1, VR1 (human) (Homo sapiens, UniProt Q8NER1).
T1 construct: expressed in transfected cells; host or cells: CHO K1 cells (ECACC), stably transfected
Put plainly: Functional study on vanilloid receptor (VR1), FLIPR Ca2+ assay in CHO K1 cells stably transfected with the VR1 gene. It counts as cell-based. The settings on record: for VR1 (human) (% inhibition compared to 10 μM CP) / VR1 (human) (% stimulation compared to 10 μM CP): test compound 10 μM; for VR1 (human) (% inhibition compared to 10 μM CP) / inhibition at 10 µM: 5 min incubation, then 100 nM capsaicin, compared to 10 μM CP; for VR1 (human) (% stimulation compared to 10 μM CP) / activation at 10 µM: Ca2+ signal relative to 10 μM capsaicin (CP); for EC50: unit inferred; for inhibition at 10 µM / activation at 10 µM: CHO-K1, test compound 10 μM; for activation at 10 µM: read-out: VR1 (human) (% stimulation compared to 10 μM CP).

Assay [1] concerns the target T2, vanilloid receptor 1 (VR1/TRPV1) of the rat species (Rattus norvegicus, UniProt O35433).
T2 construct: The spinal column is removed from beheaded rats; from tissue; host or cells: primary cells from rat dorsal root ganglia (DRGs)
Kind of assay: Functional study on vanilloid receptor 1, FLIPR Ca2+ assay in rat dorsal root ganglia cells. The settings on record: for VR1 (rat) (% inhibition compared to 10 μM CP) / VR1 (rat) (% stimulation compared to 10 μM CP) / inhibition at 10 µM / activation at 10 µM: test compound 10 μM; for VR1 (rat) (% inhibition compared to 10 μM CP) / inhibition at 10 µM: 5 min incubation, then 100 nM capsaicin, relative to maximum inhibition with 10 μM capsaicin; for VR1 (rat) (% stimulation compared to 10 μM CP) / activation at 10 µM: Ca2+ signal relative to 10 μM capsaicin (CP); for EC50: unit inferred; for inhibition at 10 µM: read-out: VR1 (rat) (% inhibition compared to 10 μM CP); for activation at 10 µM: read-out: VR1 (rat) (% stimulation compared to 10 μM CP). The format is cell-based.

Structures are written as SMILES. Structures can show the parent of a compound that is named as a salt.

T1 sequence (Q8NER1 whole entry): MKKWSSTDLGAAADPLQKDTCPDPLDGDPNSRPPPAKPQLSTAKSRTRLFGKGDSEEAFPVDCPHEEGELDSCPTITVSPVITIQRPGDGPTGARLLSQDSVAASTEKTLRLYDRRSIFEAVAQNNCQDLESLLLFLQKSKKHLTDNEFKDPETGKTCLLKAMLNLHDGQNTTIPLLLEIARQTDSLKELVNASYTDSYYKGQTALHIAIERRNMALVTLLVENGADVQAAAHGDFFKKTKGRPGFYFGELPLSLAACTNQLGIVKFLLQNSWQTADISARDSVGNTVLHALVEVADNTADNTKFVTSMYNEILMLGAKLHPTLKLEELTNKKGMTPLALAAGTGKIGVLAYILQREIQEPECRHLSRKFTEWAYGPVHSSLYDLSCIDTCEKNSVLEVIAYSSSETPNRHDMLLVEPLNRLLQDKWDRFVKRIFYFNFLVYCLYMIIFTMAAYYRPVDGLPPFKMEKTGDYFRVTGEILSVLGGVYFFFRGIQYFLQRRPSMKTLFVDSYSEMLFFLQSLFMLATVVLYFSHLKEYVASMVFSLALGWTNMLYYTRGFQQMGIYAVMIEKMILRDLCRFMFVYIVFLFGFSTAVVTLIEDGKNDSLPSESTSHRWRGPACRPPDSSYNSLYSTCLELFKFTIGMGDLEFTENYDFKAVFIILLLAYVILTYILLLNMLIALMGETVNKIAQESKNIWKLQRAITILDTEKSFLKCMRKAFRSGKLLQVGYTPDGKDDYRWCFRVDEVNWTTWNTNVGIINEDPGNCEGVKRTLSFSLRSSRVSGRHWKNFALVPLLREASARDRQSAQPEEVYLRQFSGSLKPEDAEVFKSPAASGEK
T2 sequence (O35433 whole entry): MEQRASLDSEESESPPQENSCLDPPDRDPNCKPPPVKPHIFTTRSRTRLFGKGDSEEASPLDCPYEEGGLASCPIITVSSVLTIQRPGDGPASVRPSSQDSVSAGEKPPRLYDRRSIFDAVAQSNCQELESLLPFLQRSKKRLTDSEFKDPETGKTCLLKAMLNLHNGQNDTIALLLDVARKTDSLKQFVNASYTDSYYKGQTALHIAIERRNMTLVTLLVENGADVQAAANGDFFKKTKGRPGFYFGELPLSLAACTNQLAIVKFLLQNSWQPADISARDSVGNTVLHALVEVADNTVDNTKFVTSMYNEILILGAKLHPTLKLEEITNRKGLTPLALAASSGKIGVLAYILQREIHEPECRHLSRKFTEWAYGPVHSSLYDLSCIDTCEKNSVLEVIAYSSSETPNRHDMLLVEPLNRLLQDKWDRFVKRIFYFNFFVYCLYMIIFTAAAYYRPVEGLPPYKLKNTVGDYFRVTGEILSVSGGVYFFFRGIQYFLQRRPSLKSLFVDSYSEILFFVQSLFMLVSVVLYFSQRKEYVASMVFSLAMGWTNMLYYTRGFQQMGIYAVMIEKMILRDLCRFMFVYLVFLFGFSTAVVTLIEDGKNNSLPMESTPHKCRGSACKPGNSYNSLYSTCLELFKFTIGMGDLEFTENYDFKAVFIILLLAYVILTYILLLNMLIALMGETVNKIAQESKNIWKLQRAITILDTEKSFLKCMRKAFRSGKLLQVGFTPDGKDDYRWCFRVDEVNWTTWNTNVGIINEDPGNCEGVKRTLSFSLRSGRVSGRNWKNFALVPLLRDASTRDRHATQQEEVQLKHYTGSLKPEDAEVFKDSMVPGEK

As a reminder, the EC50 is the concentration that produces a half-maximal response. A low value points to greater potency. Take `Br.O=C1N=C(N2CCSCC2)SC1=CC=Cc1ccccc1` [Example 190, 5-(3-phenylallylidene)-2-thiomorpholin-4-ylthiazol-4-one hydrobromide]: on VR1 (human), the “VR1 (human) (% inhibition compared to 10 μM CP)” value is 32.35%, the “VR1 (human) (% stimulation compared to 10 μM CP)” value is listed as 34.09% and the EC50 is greater than 25 µM. In assay [1], the “VR1 (rat) (% inhibition compared to 10 μM CP)” value stood at 83.13%, the “VR1 (rat) (% stimulation compared to 10 μM CP)” value came out at 51.35% and the EC50 is 14.3 µM.

One may read the inhibition as the drop in the measured response relative to a control, in per cent. In the case of `O=C1N=C(N2CCCCC2)SC1=CC=Cc1ccccc1` [Example 191, 5-(3-phenylallylidene)-2-piperidin-1-ylthiazol-4-one hydrobromide], at VR1 (human), the inhibition at 10 µM was found to be 8.04%, the activation at 10 µM came to 15.8% and the EC50 was greater than 50 µM. For the same molecule, in assay [1], the inhibition at 10 µM amounted to 17.6%, the activation at 10 µM is -0.17% and the EC50 was greater than 25 µM.

As for `O=C1N=C(N2CCCCCC2)SC1=CC=Cc1ccccc1` [Example 192, 2-azepan-1-yl-5-(3-phenylallylidene)thiazol-4-one hydrobromide], on VR1 (human), the inhibition at 10 µM came out at 10.3%, the activation at 10 µM was 16.7% and the EC50 was greater than 50 µM. Further, in assay [1], the inhibition at 10 µM was found to be 2.18%, the activation at 10 µM amounted to 1.34% and the EC50 was greater than 50 µM.

With `O=C1N=C(N2CCSCC2)SC1=Cc1cccc(C(F)(F)F)c1` [Example 195, 2-thiomorpholin-4-yl-5-(3-trifluoromethylbenzylidene)thiazol-4-one hydrobromide], on VR1 (human), the inhibition at 10 µM came out at 90.3%, the activation at 10 µM was found to be 80.3% and the EC50 was found to be 5.9 µM. In assay [1], the inhibition at 10 µM was found to be 96.1%, the activation at 10 µM stood at 94.3% and the EC50 turned out to be 2.2 µM.

As for `CC(C)(C)c1ccc(C=C2SC(N3CCOCC3)=NC2=O)cc1` [Example 197, 5-(4-tert-butylbenzylidene)-2-morpholin-4-ylthiazol-4-one], at VR1 (human), the inhibition at 10 µM was determined as 72.4% and the activation at 10 µM is 48%. In assay [1], the inhibition at 10 µM came to 94.3% and the “VR1 (rat) (% stimulation compared to 10 μM CP)” value is 63.86%.

For the molecule `CC(C)(C)c1ccc(C=C2SC(N3CCSCC3)=NC2=O)cc1` [Example 198, 5-(4-tert-butylbenzylidene)-2-thiomorpholin-4-ylthiazol-4-one hydrobromide], on VR1 (human), the inhibition at 10 µM came out at 76.7%, the activation at 10 µM came out at 54.3% and the EC50 was 1.02 µM. In assay [1], the inhibition at 10 µM worked out at 97.6%, the activation at 10 µM was 60.7% and the EC50 worked out at 1.12 µM.

On to `CC(C)(C)c1ccc(C=C2SC(N3CCCC3)=NC2=O)cc1` [Example 199, 5-(4-tert-butylbenzylidene)-2-pyrrolidin-1-ylthiazol-4-one hydrobromide], for which, at VR1 (human), the inhibition at 10 µM amounted to 4.43% and the activation at 10 µM worked out at 9.64%. For the same molecule, in assay [1], the inhibition at 10 µM amounted to 69.5% and the activation at 10 µM came to 42.9%.

As for `CC(C)(C)c1ccc(C=C2SC(N3CCCCCC3)=NC2=O)cc1` [Example 200, 2-azepan-1-yl-5-(4-tert-butylbenzylidene)thiazol-4-one hydrobromide], at VR1 (human), the inhibition at 10 µM came to 2.12%, the activation at 10 µM is 17.5% and the EC50 was greater than 25 µM. In addition, in assay [1], the inhibition at 10 µM turned out to be 46.2%, the activation at 10 µM was found to be 31.4% and the EC50 is greater than 25 µM.

In the case of `O=C1N=C(N2CCOCC2)SC1=Cc1cccc(C(F)(F)F)c1` [Example 205, 2-morpholin-4-yl-5-(3-trifluoromethylbenzylidene)thiazol-4-one hydrobromide], the values for the inhibition at 10 µM (at VR1 (human); in assay [1]) were 103% and 96.4%, respectively. Besides, the activation at 10 µM on VR1 (human) is 68.2%; in assay [1], 79.6%.

As for `O=C1N=C(N2CCOCC2)SC1=Cc1cccc(C(F)(F)F)c1` [Example 206, 2-morpholin-4-yl-5-(3-trifluoromethylbenzylidene)thiazol-4-one], on VR1 (human), the “VR1 (human) (% inhibition compared to 10 μM CP)” value turned out to be 95.06% and the “VR1 (human) (% stimulation compared to 10 μM CP)” value was 77.26%. Further, in assay [1], the “VR1 (rat) (% inhibition compared to 10 μM CP)” value was found to be 102.30% and the “VR1 (rat) (% stimulation compared to 10 μM CP)” value came out at 76.51%.

As to `O=C1N=C(N2CCOCC2)SC1=Cc1cccc2ccccc12` [Example 209, 2-morpholin-4-yl-5-naphthalen-1-ylmethylenethiazol-4-one], at VR1 (human), the inhibition at 10 µM was determined as 5.47%, the activation at 10 µM was 9.44% and the EC50 is 28.4 µM. Further, in assay [1], the inhibition at 10 µM is 34.7%, the activation at 10 µM was 40% and the EC50 was 14.8 µM.

Take `O=C1N=C(N2CCOCC2)SC1=Cc1ccccn1` [Example 210, 2-morpholin-4-yl-5-pyridin-2-ylmethylenethiazol-4-one]: on VR1 (human), the inhibition at 10 µM stood at 3.03% and the activation at 10 µM stood at 1.83%. For the same molecule, in assay [1], the inhibition at 10 µM stood at 23% and the activation at 10 µM came out at 2.22%.

On to `CCN(CC)C1=NC(=O)C(=Cc2cccc(C(F)(F)F)c2)S1` [Example 214, 2-diethylamino-5-(3-trifluoromethylbenzylidene)thiazol-4-one], for which, on VR1 (human), the inhibition at 10 µM was found to be 56.7% and the activation at 10 µM is 6.08%. Also, in assay [1], the inhibition at 10 µM turned out to be 50.1% and the activation at 10 µM came out at 13.7%.

In the case of `Cc1ccc(C=C2SC(N3CCCC3)=NC2=O)cc1` [Example 215, 5-(4-methylbenzylidene)-2-pyrrolidin-1-ylthiazol-4-one], the inhibition at 10 µM against VR1 (human) was 49.8%; in assay [1] it was 4.47%. The figures for the activation at 10 µM (at VR1 (human); in assay [1]) were 3.64% and 2.14%, respectively.

On to `COCCNC1=NC(=O)C(=Cc2ccc(C(C)(C)C)cc2)S1` [Example 216, 5-(4-tert-butylbenzylidene)-2-(2-methoxyethylamino)thiazol-4-one hydrobromide], for which, at VR1 (human), the inhibition at 10 µM was found to be 51.1%, the activation at 10 µM worked out at 2.08% and it took 5.4 µM to reach a half-maximal effect (EC50). Further, in assay [1], the inhibition at 10 µM worked out at 22.1%, the activation at 10 µM is 1.24% and the EC50 stood at 1.5 µM.

Regarding `Cc1ccc(C=C2SC(N3CCOCC3)=NC2=O)cc1` [Example 218, 5-(4-methylbenzylidene)-2-morpholin-4-ylthiazol-4-one], on VR1 (human), the “VR1 (human) (% inhibition compared to 10 μM CP)” value turned out to be 12.88% and the “VR1 (human) (% stimulation compared to 10 μM CP)” value worked out at 17.91%. Also, in assay [1], the “VR1 (rat) (% inhibition compared to 10 μM CP)” value worked out at 78.83% and the “VR1 (rat) (% stimulation compared to 10 μM CP)” value worked out at 55.76%.

Consider `CC(C)(C)c1ccc(C=C2SC(N3CCOCC3)=NC2=O)cc1` [Example 222, 5-(4-tert-butylbenzylidene)-2-morpholin-4-ylthiazol-4-one], for which, on VR1 (human), the “VR1 (human) (% inhibition compared to 10 μM CP)” value is reported as 79.67% and the “VR1 (human) (% stimulation compared to 10 μM CP)” value is 41.92%. Besides, in assay [1], the “VR1 (rat) (% inhibition compared to 10 μM CP)” value amounted to 98.64% and the “VR1 (rat) (% stimulation compared to 10 μM CP)” value was 102.46%.

`CCN(CC)c1ccc(C=C2SC(N3CCOCC3)=NC2=O)cc1` [Example 223, 5-(4-diethylaminobenzylidene)-2-morpholin-4-ylthiazol-4-one]: at VR1 (human), the inhibition at 10 µM came out at 57.7% and the activation at 10 µM turned out to be 70.5%. For the same molecule, in assay [1], the inhibition at 10 µM was 9.3% and the activation at 10 µM was found to be 102%.

With `COc1ccc(C=C2SC(N3CCOCC3)=NC2=O)cc1` [Example 228, 5-(4-methoxybenzylidene)-2-morpholin-4-ylthiazol-4-one], at VR1 (human), the inhibition at 10 µM came to 0.61%, the activation at 10 µM turned out to be 12.2% and the EC50 came to 26.5 µM. Besides, in assay [1], the inhibition at 10 µM worked out at 4.84%, the activation at 10 µM is 16% and it took 14.3 µM to reach a half-maximal effect (EC50).

Turning to `O=C1N=C(N2CCOCC2)SC1=Cc1ccc(Br)cc1` [Example 232, 5-(4-bromobenzylidene)-2-morpholin-4-ylthiazol-4-one], on VR1 (human), the inhibition at 10 µM is 43.8% and the activation at 10 µM is 29.2%. Also, in assay [1], the inhibition at 10 µM was 96.2% and the activation at 10 µM is 80.4%.

On to `O=C1N=C(N2CCOCC2)SC1=Cc1ccc(OS(=O)(=O)c2ccccc2)cc1` [Example 234, benzenesulfonic acid 4-(2-morpholin-4-yl-4-oxo-4H-thiazol-5-ylidenemethyl)phenyl ester], for which, at VR1 (human), the inhibition at 10 µM amounted to 27.8% and the activation at 10 µM was found to be 46.1%. In assay [1], the inhibition at 10 µM was 98.1% and the activation at 10 µM is 57.9%.

Regarding `CN(C)c1ccc(C=C2SC(N3CCOCC3)=NC2=O)cc1` [Example 235, 5-(4-dimethylaminobenzylidene)-2-morpholin-4-ylthiazol-4-one], the results for the inhibition at 10 µM (at VR1 (human); in assay [1]) were 44.5% and 13.7%, respectively. Further, the results for the activation at 10 µM (at VR1 (human); in assay [1]) were 73.9% and 123%, respectively.

The values are drawn from patent US20090215758A1, “Use of 2,5-Disubstituted Thiazol-4-One Derivatives in Drugs” (Gruenenthal GmbH, priority 2005, published 2009).
